Values quoted from earlier work in patent publication US20040157836A1, “Sulfonamides having antiangiogenic and anticancer activity” (priority 2002, published 2004).

Molecular target: type 2-methionine aminopeptidase (MetAP-2) (Homo sapiens, UniProt P50579)
Settings: reported in Proc. Natl. Acad. Sci. USA 94: 6099-6103 (1997) and Chemistry and Biology, 4(6): 461-471 (1997)

type 2-methionine aminopeptidase (MetAP-2), sequence (P50579 whole entry, species assumed): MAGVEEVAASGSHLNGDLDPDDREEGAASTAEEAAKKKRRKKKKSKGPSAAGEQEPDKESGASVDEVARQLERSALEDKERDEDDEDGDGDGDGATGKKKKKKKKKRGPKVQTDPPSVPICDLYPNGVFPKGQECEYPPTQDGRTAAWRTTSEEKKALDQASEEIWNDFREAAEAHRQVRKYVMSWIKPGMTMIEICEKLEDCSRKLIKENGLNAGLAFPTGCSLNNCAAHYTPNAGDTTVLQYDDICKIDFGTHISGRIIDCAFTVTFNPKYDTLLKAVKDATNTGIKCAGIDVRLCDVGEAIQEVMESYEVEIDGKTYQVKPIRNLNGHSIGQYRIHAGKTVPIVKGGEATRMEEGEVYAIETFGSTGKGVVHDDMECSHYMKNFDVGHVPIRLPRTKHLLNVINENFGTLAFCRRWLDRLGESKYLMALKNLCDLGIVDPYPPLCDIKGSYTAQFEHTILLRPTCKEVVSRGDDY

CO[C@@H]1[C@H](OC(=O)NC(=O)CCl)CC[C@]2(CO2)[C@H]1[C@@]1(C)O[C@@H]1CC=C(C)C [AGM-1470]
bind to type 2-methionine aminopeptidase (MetAP-2): bind
